Where two headings read alike, the source gives them in different places.
Experiments:
JNK3 = JNK3 (Homo sapiens, UniProt P53779); test: Kinase screen: JNK3 alpha 1 assay; format: biochemical; conditions: read-out: Mean Remaining Enzyme Activity (%)
Experimental: (§1) Generally, the same procedure was used for all assays. Since the total assay volume was 25.5 microliters, 0.5 microliters of inhibitors at 51× assay concentration were added to the plates before any other addition.
(§2) The basic procedure was to add 0.5 microliters inhibitor/control in DMSO to plate. Fifteen microliters of enzyme/substrate/buffer mix were added and incubated for 5 min. Ten microliters MgATP at the relevant concentration were added and incubated for 30 min. The assay was stopped by adding 5 microliters of 3% orthophosphoric acid. The assay was transferred to a p81 filter plate and read in a scintillation counter of 30 sec/well. Note that this assay procedure was not followed for MKK1, which instead involved a two-step assay, and PKC alpha, which required the addition of lipid vesicles.
JNK3 alpha 1 assay: JNK3 alpha 1(5-20 mU diluted in 50 mM Tris (pH 7.5), 0.1 mM EGTA, 1 mg/ml BSA, 0.1% b-mercaptoethanol) was assayed against ATF2 (activating transcription factor in a final volume of 25.5 μl in 50 mM Tris pH 7.5, 0.1 mM EGTA, 0.1% b-Mercaptoethanol, ATF2 (3 μM), 10 mM magnesium acetate and 0.05 mM [33P-g-ATP] (500-1000 cpm/pmole) and incubated for 30 min at room temperature. Assays were stopped by addition of 5 μl of 0.5 M (3%) orthophosphoric acid and then harvested onto P81 Unifilter plates with a wash buffer of 50 mM orthophosphoric acid.

AURORA B = AURORA B (Homo sapiens, UniProt Q96GD4); test: Kinase screen: Aurora B assay; format: biochemical; conditions: read-out: Mean Remaining Enzyme Activity (%)
Experimental: as §1, §2
Aurora B assay: Aurora B (5-20 mU diluted in 50 mM Tris pH 7.5, 0.1 mM EGTA, 0.1% b-mercaptoethanol, 1 mg/ml BSA) was assayed against a substrate peptide ([…]) (SEQ ID NO: 26) in a final volume of […] containing 50 mM Tris pH 7.5, 0.05% b-mercaptoethanol, 300 μM substrate peptide, 10 mM magnesium acetate and 0.02 mM [33P-g-ATP] (50-1000 cpm/pmole) and incubated for 30 min at room temperature. Assays were stopped by addition of 5 μl of 0.5 M (3%) orthophosphoric acid and then harvested onto P81 Unifilter plates with a wash buffer of 50 mM orthophosphoric acid.

HCT-15 [1] = tested on: HCT-15
MCF7 [2] = tested on: MCF7
CCRF-CEM = test: cells; conditions: Homo sapiens
HCT-15 [3] = test: cells; conditions: Homo sapiens
SF-295 = test: cells; conditions: Homo sapiens
IGROV1 = test: cells; conditions: Homo sapiens
OVCAR-5 = test: cells; conditions: Homo sapiens
OVCAR-8 = test: cells; conditions: Homo sapiens
RXF 393 = test: cells; conditions: Homo sapiens
DU-145 = test: cells; conditions: Homo sapiens
MCF7 [4] = test: cells; conditions: Homo sapiens
HS 578T = test: cells; conditions: Homo sapiens
BT-549 = test: cells; conditions: Homo sapiens
T-47D = test: cells; conditions: Homo sapiens, T47D
[5] = RPMI-8226, log10 concentration −4.0
[6] = RPMI-8226, log10 concentration −5.0
[7] = RPMI-8226, log10 concentration −6.0
[8] = RPMI-8226, log10 concentration −7.0
[9] = RPMI-8226, log10 concentration −8.0
[10] = HOP-92, log10 concentration −4.0
[11] = HOP-92, log10 concentration −5.0
[12] = HOP-92, log10 concentration −6.0
[13] = HOP-92, log10 concentration −7.0
[14] = HOP-92, log10 concentration −8.0
[15] = HCT-15, log10 concentration −4.0
[16] = HCT-15, log10 concentration −5.0
[17] = HCT-15, log10 concentration −6.0
[18] = HCT-15, log10 concentration −7.0
[19] = HCT-15, log10 concentration −8.0
[20] = SK-MEL-2, log10 concentration −4.0
[21] = SK-MEL-2, log10 concentration −5.0
[22] = SK-MEL-2, log10 concentration −6.0
[23] = SK-MEL-2, log10 concentration −7.0
[24] = SK-MEL-2, log10 concentration −8.0

Sequence of JNK3 (P53779 1-422 isoform P53779-2, species assumed): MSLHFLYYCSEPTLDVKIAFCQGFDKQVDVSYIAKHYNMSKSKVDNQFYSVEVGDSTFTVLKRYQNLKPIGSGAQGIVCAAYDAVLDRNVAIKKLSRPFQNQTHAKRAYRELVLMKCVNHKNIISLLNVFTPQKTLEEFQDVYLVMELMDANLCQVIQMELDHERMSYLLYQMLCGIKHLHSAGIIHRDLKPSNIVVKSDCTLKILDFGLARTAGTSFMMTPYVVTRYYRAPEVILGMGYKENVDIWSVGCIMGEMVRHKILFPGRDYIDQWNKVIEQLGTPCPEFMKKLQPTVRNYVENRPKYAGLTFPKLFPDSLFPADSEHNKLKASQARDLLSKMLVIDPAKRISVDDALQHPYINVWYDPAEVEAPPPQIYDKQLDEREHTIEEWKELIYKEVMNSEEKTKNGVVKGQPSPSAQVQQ
Sequence of AURORA B (Q96GD4 whole entry): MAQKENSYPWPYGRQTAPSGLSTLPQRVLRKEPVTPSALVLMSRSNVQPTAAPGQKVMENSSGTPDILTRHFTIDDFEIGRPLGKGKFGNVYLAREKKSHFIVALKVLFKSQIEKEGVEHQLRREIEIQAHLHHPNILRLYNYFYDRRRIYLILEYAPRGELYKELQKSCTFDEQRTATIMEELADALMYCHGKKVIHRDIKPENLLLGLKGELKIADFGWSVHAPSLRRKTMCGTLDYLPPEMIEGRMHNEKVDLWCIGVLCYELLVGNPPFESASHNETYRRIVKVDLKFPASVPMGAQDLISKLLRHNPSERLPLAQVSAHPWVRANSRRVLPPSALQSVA

CC(C)c1cnn2c(NCc3ccccc3)cc(NCCCCCCCN)nc12 [BS-181]
remaining activity at 10 µM (JNK3): 128%
remaining activity at 10 µM (AURORA B): 95%

CC(C)c1cnn2c(NCc3ccccc3)cc(N[C@@H](CO)[C@H](O)CO)nc12 [ICEC0318, (3S)-3-(7-(Benzylamino)-3-isopropylpyrazolo[1,5-a]pyrimidin-5-ylamino)butane-1,2,4-triol]
TGI (RPMI-8226; RPMI-8226 (Leukemia)): >1.00E−4
Mean Optical Densities (RPMI-8226; [5]): 0.249
Percent Growth (RPMI-8226; [5]): 7%
Mean Optical Densities (RPMI-8226; [6]): 0.302
Percent Growth (RPMI-8226; [6]): 18%
Mean Optical Densities (RPMI-8226; [7]): 0.311
Percent Growth (RPMI-8226; [7]): 19%
Mean Optical Densities (RPMI-8226; [8]): 0.556
Percent Growth (RPMI-8226; [8]): 67%
Mean Optical Densities (RPMI-8226; [9]): 0.595
Percent Growth (RPMI-8226; [9]): 75%
TGI (HOP-92; HOP-92 (Non-Small Cell Lung Cancer)): >1.00E−4
Mean Optical Densities (HOP-92; [10]): 0.594
Percent Growth (HOP-92; [10]): 12%
Mean Optical Densities (HOP-92; [11]): 0.612
Percent Growth (HOP-92; [11]): 16%
Mean Optical Densities (HOP-92; [12]): 0.645
Percent Growth (HOP-92; [12]): 22%
Mean Optical Densities (HOP-92; [13]): 0.981
Percent Growth (HOP-92; [13]): 86%
Mean Optical Densities (HOP-92; [14]): 1.050
Percent Growth (HOP-92; [14]): 99%
TGI (HCT-15 [1]; HCT-15 (Colon Cancer)): >1.00E−4
Mean Optical Densities (HCT-15 [1]; [15]): 0.268
Percent Growth (HCT-15 [1]; [15]): 2%
Mean Optical Densities (HCT-15 [1]; [16]): 0.286
Percent Growth (HCT-15 [1]; [16]): 3%
Mean Optical Densities (HCT-15 [1]; [17]): 0.481
Percent Growth (HCT-15 [1]; [17]): 21%
Mean Optical Densities (HCT-15 [1]; [18]): 1.262
Percent Growth (HCT-15 [1]; [18]): 90%
Mean Optical Densities (HCT-15 [1]; [19]): 1.354
Percent Growth (HCT-15 [1]; [19]): 98%
TGI (SK-MEL-2; SK-MEL-2 (Melanoma)): 8.22E−5
Mean Optical Densities (SK-MEL-2; [20]): 1.061
Percent Growth (SK-MEL-2; [20]): −1%
Mean Optical Densities (SK-MEL-2; [21]): 1.218
Percent Growth (SK-MEL-2; [21]): 12%
Mean Optical Densities (SK-MEL-2; [22]): 1.290
Percent Growth (SK-MEL-2; [22]): 18%
Mean Optical Densities (SK-MEL-2; [23]): 2.275
Percent Growth (SK-MEL-2; [23]): 99%
Mean Optical Densities (SK-MEL-2; [24]): 2.282
Percent Growth (SK-MEL-2; [24]): 100%
TGI (MCF7 [2]; MCF7 (Breast Cancer)): >1.00E−4
Mean Optical Densities (MCF7 [2]; MCF7, log10 concentration −4.0): 0.229
Percent Growth (MCF7 [2]; MCF7, log10 concentration −4.0): 6%
Mean Optical Densities (MCF7 [2]; MCF7, log10 concentration −5.0): 0.237
Percent Growth (MCF7 [2]; MCF7, log10 concentration −5.0): 7%
Mean Optical Densities (MCF7 [2]; MCF7, log10 concentration −6.0): 0.244
Percent Growth (MCF7 [2]; MCF7, log10 concentration −6.0): 7%
Mean Optical Densities (MCF7 [2]; MCF7, log10 concentration −7.0): 0.805
Percent Growth (MCF7 [2]; MCF7, log10 concentration −7.0): 72%
Mean Optical Densities (MCF7 [2]; MCF7, log10 concentration −8.0): 1.098
Percent Growth (MCF7 [2]; MCF7, log10 concentration −8.0): 107%
GI50 (CCRF-CEM): 342 nM
GI50 (HCT-15 [3]; HCT-15): 377 nM
CC50 (HCT-15 [3]; HCT-15, read-out: LC50): > 100000 nM
GI50 (SF-295; SF-295): 266 nM
CC50 (SF-295; SF-295, read-out: LC50): > 100000 nM
GI50 (IGROV1; IGROV-1): 210 nM
CC50 (IGROV1; IGROV-1, read-out: LC50): > 100000 nM
GI50 (OVCAR-5; OVCAR-5): 305 nM
CC50 (OVCAR-5; OVCAR-5, read-out: LC50): > 100000 nM
GI50 (OVCAR-8; OVCAR-8): 340 nM
CC50 (OVCAR-8; OVCAR-8, read-out: LC50): > 100000 nM
GI50 (RXF 393; RXF 393): 213 nM
CC50 (RXF 393; RXF 393, read-out: LC50): 54600 nM
GI50 (DU-145; DU-145): 377 nM
CC50 (DU-145; DU-145, read-out: LC50): > 100000 nM
GI50 (MCF7 [4]; MCF7): 221 nM
CC50 (MCF7 [4]; MCF7, read-out: LC50): > 100000 nM
GI50 (HS 578T): 276 nM
CC50 (HS 578T; read-out: LC50): > 100000 nM
GI50 (BT-549; BT-549): 258 nM
CC50 (BT-549; BT-549, read-out: LC50): > 100000 nM
GI50 (T-47D): 305 nM
CC50 (T-47D; read-out: LC50): > 100000 nM

Source: patent US8067424B2, “Selective inhibitors for cyclin-dependent kinases” (Emory University, priority 2007, dated 2011)
